Measurements from US9566277B2, “Methods of using phthalazinone ketone derivatives” (Jiangsu Hansoh Pharmaceutical Co., Ltd., priority 2010, dated 2017).

Experiment: Pharmacokinetics assay in SD rats (LC/MS/MS plasma concentration)
Type: in vivo
Settings: 15 mg/kg; for Apparent Distribution Volume Vz/F / Clearance CL/F: intravenous injection; for Vd/F / CL/F: both sexes, rat, plasma, oral gavage; for Vd/F: read-out: Apparent Distribution Volume Vz/F; for CL/F: read-out: Clearance CL/F (converted)
Experimental: 24 Healthy adult SD rats, male and female in half, were purchased from SINO-BRITSH SIPPR/BK LAB. ANIMAL LTD., CO, Certificate No.: SCXK (Shanghai) 2003-0002.
The intragastrical administration group: the right amount of tested compounds were weighed and dissolved in 0.5 mL of DMSO, diluted with physiological saline to 10 mL and prepared to 1.5 mg/mL.
The intravenous injection administration group: the right amount of tested compounds were weighed and added into […].
After an overnight fast, 24 healthy adult SD rats, male and female in half, were administered intragastrically at a dose of 15.0 mg/kg and an administration volume of 10 mL/kg.
(§1) The intragastrical administration group: blood samples (0.2 mL) were taken from orbital sinus at pre administration and at 0.25 hour, 0.5 hour, 1.0 hour, 1.5 hours, 2.0 hours, 3.0 hours, 4.0 hours, 6.0 hours, 7.0 hours, 9.0 hours, 12.0 hours and 24.0 hours post administration, stored in heparinized tubes and centrifuged for 20 minutes at 3,500 rpm to separate plasma. The plasma samples were stored at −20° C. The rats were fed at 2 hours after administration.
as §1, with “intravenous injection” for “intragastrical”, “2 minutes, 15 minutes,” for “0.25 hour,”, “hour,” for “hour, 1.5 hours,”, “8.0” for “7.0 hours, 9.0”, “C.” for “C. The rats were fed at 2 hours after administration.”
20 μL of rat blank plasmas taken at various time points after administration were added with 50 μL of internal standard solution and […] of methanol and mixed for 3 minutes by a vortexer. The mixture was centrifuged for 10 minutes at 13,500 rpm. 20 μL of the supernatant was analyzed by LC-MS/MS. The main pharmacokinetic parameters were calculated by software DAS 2.0.

| Apparent Distribution Volume Vz/F | Clearance CL/F | Vd/F | CL/F | Structure (SMILES) |
| --- | --- | --- | --- | --- |
| 0.64 ± 0.19 L/kg | 8.67 ± 4.83 mL/min/kg | 103 ± 134 L/kg | 257 mL/min/kg | CCNC(=O)c1nc(C(F)(F)F)n2c1CN(C(=O)c1cc(Cc3n[nH]c(=O)c4ccccc34)ccc1F)CC2 [Example 7, N-ethyl-7-[2-fluoro-5-[(4-oxo-3H-phthalazin-1-yl)methyl]benzoyl]-3-(trifluoromethyl)-6,8-dihydro-5H-imidazo[1,5-a]pyrazine-1-carboxamide] |
| – | – | 7.97 ± 5.38 L/kg | 57.5 mL/min/kg | O=C(c1cc(Cc2n[nH]c(=O)c3ccccc23)ccc1F)N1CCn2nc(C(F)(F)F)nc2C1 [Example 19, 4-[[4-fluoro-3-[2-(trifluoromethyl)-6,8-dihydro-5H-[1,2,4]triazolo[1,5-a]pyrazine-7-carbonyl]phenyl]methyl]-2H-phthalazin-1-one] |
| 4.70 ± 2.17 L/kg | 12 ± 7.5 mL/min/kg | 49.9 ± 52.9 L/kg | 74.5 mL/min/kg | CNC(=O)c1nc(C(F)(F)F)n2c1CN(C(=O)c1cc(Cc3n[nH]c(=O)c4ccccc34)ccc1F)CC2 [Example 13, 7-[2-fluoro-5-[(4-oxo-3H-phthalazin-1-yl)methyl]benzoyl]-N-methyl-3-(trifluoromethyl)-6,8-dihydro-5H-imidazo[1,5-a]pyrazine-1-carboxamide] |
